Assay results from ChEMBL document CHEMBL5723584 (2023).
The source made the active and inactive calls. The calls are words filed in the database; no cut-off is given here.

Columns and labels:
[1] = target: Casein kinase I isoform gamma-3 (Homo sapiens) (UniProt Q9Y6M4); assay: activity of CK1gamma3(h) at 1.0 µM in the Eurofins Kinase panel; settings: Compound concentration 1.0 uM
[2] = target: Serine/threonine-protein kinase 24 (Homo sapiens) (UniProt Q9Y6E0); assay: activity of MST3(h) at 1.0 µM in the Eurofins Kinase panel; settings: Compound concentration 1.0 uM
[3] = target: Proto-oncogene tyrosine-protein kinase receptor Ret (Homo sapiens) (UniProt P07949); assay: activity of Ret(h) at 1.0 µM in the Eurofins Kinase panel; settings: Compound concentration 1.0 uM
[4] = target: Tribbles homolog 2 (Homo sapiens) (UniProt Q92519); assay: activity of TRB2(h) at 1.0 µM in the Eurofins Kinase panel; settings: Compound concentration 1.0 uM
[5] = target: Serine/threonine-protein kinase NIM1 (Homo sapiens) (UniProt Q8IY84); assay: activity of NIM1(h) at 1.0 µM in the Eurofins Kinase panel; settings: Compound concentration 1.0 uM
[6] = target: MAP/microtubule affinity-regulating kinase 3 (Homo sapiens) (UniProt P27448); assay: activity of MARK3(h) at 1.0 µM in the Eurofins Kinase panel; settings: Compound concentration 1.0 uM
[7] = target: Serine/threonine-protein kinase Nek7 (Homo sapiens) (UniProt Q8TDX7); assay: activity of NEK7(h) at 1.0 µM in the Eurofins Kinase panel; settings: Compound concentration 1.0 uM
[8] = target: G protein-coupled receptor kinase 6 (Homo sapiens) (UniProt P43250); assay: activity of GRK6(h) at 1.0 µM in the Eurofins Kinase panel; settings: Compound concentration 1.0 uM
[9] = target: Casein kinase II subunit alpha' (Homo sapiens) (UniProt P19784); assay: activity of CK2alpha2(h) at 1.0 µM in the Eurofins Kinase panel; settings: Compound concentration 1.0 uM
[10] = target: Dual specificity mitogen-activated protein kinase kinase 2 (Homo sapiens) (UniProt P36507); assay: activity of MEK2(h) at 1.0 µM in the Eurofins Kinase panel; settings: Compound concentration 1.0 uM
[11] = target: Focal adhesion kinase 1 (Homo sapiens) (UniProt Q05397); assay: activity of FAK(h) at 1.0 µM in the Eurofins Kinase panel; settings: Compound concentration 1.0 uM
[12] = target: eIF-2-alpha kinase GCN2 (Homo sapiens) (UniProt Q9P2K8); assay: activity of GCN2(h) at 1.0 µM in the Eurofins Kinase panel; settings: Compound concentration 1.0 uM
[13] = target: Mitogen-activated protein kinase kinase kinase kinase 2 (Homo sapiens) (UniProt Q12851); assay: activity of GCK(h) at 1.0 µM in the Eurofins Kinase panel; settings: Compound concentration 1.0 uM
[14] = target: Mitogen-activated protein kinase 1 (Homo sapiens) (UniProt P28482); assay: activity of MAPK1(h) at 1.0 µM in the Eurofins Kinase panel; settings: Compound concentration 1.0 uM
[15] = target: Citron Rho-interacting kinase (Homo sapiens, UniProt O14578); assay: NanoLuc NanoBRET (CITKD); settings: read-out: Kd
[16] = target: Activin receptor type-1B (Homo sapiens) (UniProt P36896); assay: activity of ALK4(h) at 1.0 µM in the Eurofins Kinase panel; settings: Compound concentration 1.0 uM
[17] = target: Mitogen-activated protein kinase 11 (Homo sapiens) (UniProt Q15759); assay: activity of SAPK2b(h) at 1.0 µM in the Eurofins Kinase panel; settings: Compound concentration 1.0 uM
[18] = target: Calcium/calmodulin-dependent protein kinase type II subunit delta (Homo sapiens) (UniProt Q13557); assay: activity of CaMKIIdelta(h) at 1.0 µM in the Eurofins Kinase panel; settings: Compound concentration 1.0 uM
[19] = target: Serine/threonine-protein kinase TAO2 (Homo sapiens) (UniProt Q9UL54); assay: activity of TAO2(h) at 1.0 µM in the Eurofins Kinase panel; settings: Compound concentration 1.0 uM
[20] = target: Epithelial discoidin domain-containing receptor 1 (Homo sapiens) (UniProt Q08345); assay: activity of DDR1(h) at 1.0 µM in the Eurofins Kinase panel; settings: Compound concentration 1.0 uM
[21] = target: Ribosomal protein S6 kinase alpha-4 (Homo sapiens) (UniProt O75676); assay: activity of MSK2(h) at 1.0 µM in the Eurofins Kinase panel; settings: Compound concentration 1.0 uM
[22] = target: Cyclin-dependent kinase-like 2 (Homo sapiens) (UniProt Q92772); assay: activity of CDKL2(h) at 1.0 µM in the Eurofins Kinase panel; settings: Compound concentration 1.0 uM
[23] = target: Mitogen-activated protein kinase kinase kinase 11 (Homo sapiens) (UniProt Q16584); assay: activity of MLK3(h) at 1.0 µM in the Eurofins Kinase panel; settings: Compound concentration 1.0 uM
[24] = target: Calcium/calmodulin-dependent protein kinase type II subunit alpha (Homo sapiens) (UniProt Q9UQM7); assay: activity of CaMKIIalpha(h) at 1.0 µM in the Eurofins Kinase panel; settings: Compound concentration 1.0 uM
[25] = target: Receptor-interacting serine/threonine-protein kinase 2 (Homo sapiens) (UniProt O43353); assay: activity of RIPK2(h) at 1.0 µM in the Eurofins Kinase panel; settings: Compound concentration 1.0 uM
[26] = target: SRSF protein kinase 2 (Homo sapiens) (UniProt P78362); assay: activity of SRPK2(h) at 1.0 µM in the Eurofins Kinase panel; settings: Compound concentration 1.0 uM
[27] = target: Serine/threonine-protein kinase Sgk2 (Homo sapiens) (UniProt Q9HBY8); assay: activity of SGK2(h) at 1.0 µM in the Eurofins Kinase panel; settings: Compound concentration 1.0 uM
[28] = target: Activin receptor type-1-like (Homo sapiens) (UniProt P37023); assay: activity of ALK1(h) at 1.0 µM in the Eurofins Kinase panel; settings: Compound concentration 1.0 uM
[29] = target: Serine/threonine-protein kinase PAK 4 (Homo sapiens) (UniProt O96013); assay: activity of PAK4(h) at 1.0 µM in the Eurofins Kinase panel; settings: Compound concentration 1.0 uM
[30] = target: cGMP-dependent protein kinase 2 (Homo sapiens) (UniProt Q13237); assay: activity of PRKG2(h) at 1.0 µM in the Eurofins Kinase panel; settings: Compound concentration 1.0 uM
[31] = target: Serine/threonine-protein kinase SBK1 (Homo sapiens) (UniProt Q52WX2); assay: activity of SBK1(h) at 1.0 µM in the Eurofins Kinase panel; settings: Compound concentration 1.0 uM
[32] = target: Serine/threonine-protein kinase WNK3 (Homo sapiens) (UniProt Q9BYP7); assay: activity of WNK3(h) at 1.0 µM in the Eurofins Kinase panel; settings: Compound concentration 1.0 uM
[33] = target: Cyclin-dependent kinase 2/cyclin A (Homo sapiens) (UniProt P24941+P20248+P78396); assay: activity of CDK2/cyclinA(h) at 1.0 µM in the Eurofins Kinase panel; type: protein-complex assay; settings: Compound concentration 1.0 uM
[34] = target: Ribosomal protein S6 kinase alpha-2 (Homo sapiens) (UniProt Q15349); assay: activity of Rsk3(h) at 1.0 µM in the Eurofins Kinase panel; settings: Compound concentration 1.0 uM
[35] = target: cAMP-dependent protein kinase (PKA) (Homo sapiens) (UniProt P22694+P17612+P22612); assay: activity of PKA(h) at 1.0 µM in the Eurofins Kinase panel; type: protein assay; settings: Compound concentration 1.0 uM
[36] = target: Aurora kinase C (Homo sapiens) (UniProt Q9UQB9); assay: activity of Aurora-C(h) at 1.0 µM in the Eurofins Kinase panel; settings: Compound concentration 1.0 uM
[37] = target: Serine/threonine-protein kinase SIK2 (Homo sapiens) (UniProt Q9H0K1); assay: activity of SIK2(h) at 1.0 µM in the Eurofins Kinase panel; settings: Compound concentration 1.0 uM
[38] = target: Mast/stem cell growth factor receptor Kit (Homo sapiens) (UniProt P10721); assay: activity of cKit(h) at 1.0 µM in the Eurofins Kinase panel; settings: Compound concentration 1.0 uM
[39] = target: Serine/threonine-protein kinase Chk2 (Homo sapiens) (UniProt O96017); assay: activity of CHK2(h) at 1.0 µM in the Eurofins Kinase panel; settings: Compound concentration 1.0 uM

Activin receptor type-1-like (Homo sapiens), sequence (P37023 whole entry): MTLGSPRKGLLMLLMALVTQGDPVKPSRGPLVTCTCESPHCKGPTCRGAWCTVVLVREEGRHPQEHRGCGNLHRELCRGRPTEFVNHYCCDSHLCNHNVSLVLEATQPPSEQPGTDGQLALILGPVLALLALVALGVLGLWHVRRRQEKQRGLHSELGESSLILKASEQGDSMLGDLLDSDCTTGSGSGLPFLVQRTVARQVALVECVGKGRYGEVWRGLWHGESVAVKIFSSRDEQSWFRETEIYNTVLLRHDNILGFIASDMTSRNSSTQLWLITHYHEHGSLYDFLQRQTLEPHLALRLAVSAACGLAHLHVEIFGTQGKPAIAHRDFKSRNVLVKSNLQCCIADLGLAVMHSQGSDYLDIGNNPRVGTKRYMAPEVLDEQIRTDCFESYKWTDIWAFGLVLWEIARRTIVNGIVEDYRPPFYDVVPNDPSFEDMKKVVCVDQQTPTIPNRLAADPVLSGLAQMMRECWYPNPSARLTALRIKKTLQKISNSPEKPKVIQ
Ribosomal protein S6 kinase alpha-4 (Homo sapiens), sequence (O75676 whole entry, looked up): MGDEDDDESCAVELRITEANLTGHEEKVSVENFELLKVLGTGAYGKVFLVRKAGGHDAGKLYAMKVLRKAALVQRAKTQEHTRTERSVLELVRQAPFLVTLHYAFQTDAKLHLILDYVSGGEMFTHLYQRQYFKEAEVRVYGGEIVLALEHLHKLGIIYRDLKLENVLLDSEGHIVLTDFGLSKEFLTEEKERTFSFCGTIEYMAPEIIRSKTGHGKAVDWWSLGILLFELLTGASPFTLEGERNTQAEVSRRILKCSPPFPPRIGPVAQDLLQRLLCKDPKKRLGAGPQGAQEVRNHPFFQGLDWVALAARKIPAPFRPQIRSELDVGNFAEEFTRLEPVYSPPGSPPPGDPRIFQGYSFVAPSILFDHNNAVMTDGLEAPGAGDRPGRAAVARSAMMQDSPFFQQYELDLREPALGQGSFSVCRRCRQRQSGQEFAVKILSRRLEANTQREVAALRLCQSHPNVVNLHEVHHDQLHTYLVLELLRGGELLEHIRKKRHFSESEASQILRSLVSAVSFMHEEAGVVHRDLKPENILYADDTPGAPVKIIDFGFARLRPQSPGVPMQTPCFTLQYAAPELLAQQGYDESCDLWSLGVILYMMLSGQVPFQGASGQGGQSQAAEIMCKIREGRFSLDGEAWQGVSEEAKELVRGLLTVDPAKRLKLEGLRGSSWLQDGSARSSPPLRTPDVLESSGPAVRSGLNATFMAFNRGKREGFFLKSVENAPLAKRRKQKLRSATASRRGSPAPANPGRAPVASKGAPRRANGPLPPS
G protein-coupled receptor kinase 6 (Homo sapiens), sequence (P43250 whole entry, looked up): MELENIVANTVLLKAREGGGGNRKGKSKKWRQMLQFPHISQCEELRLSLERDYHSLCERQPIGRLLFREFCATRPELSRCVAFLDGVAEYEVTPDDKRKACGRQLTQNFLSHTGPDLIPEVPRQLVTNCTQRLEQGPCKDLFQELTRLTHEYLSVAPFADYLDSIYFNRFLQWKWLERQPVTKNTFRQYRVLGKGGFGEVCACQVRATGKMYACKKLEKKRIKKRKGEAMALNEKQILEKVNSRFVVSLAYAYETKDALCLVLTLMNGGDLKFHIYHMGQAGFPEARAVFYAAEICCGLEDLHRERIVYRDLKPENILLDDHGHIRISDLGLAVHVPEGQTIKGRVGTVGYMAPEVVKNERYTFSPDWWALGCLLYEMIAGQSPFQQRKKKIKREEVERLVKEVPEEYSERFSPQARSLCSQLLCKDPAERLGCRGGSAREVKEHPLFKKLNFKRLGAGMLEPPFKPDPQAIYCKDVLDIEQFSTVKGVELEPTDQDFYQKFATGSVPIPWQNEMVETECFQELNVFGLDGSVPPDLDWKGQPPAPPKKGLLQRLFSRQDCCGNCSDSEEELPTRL
Casein kinase I isoform gamma-3 (Homo sapiens), sequence (Q9Y6M4 whole entry, looked up, canonical isoform): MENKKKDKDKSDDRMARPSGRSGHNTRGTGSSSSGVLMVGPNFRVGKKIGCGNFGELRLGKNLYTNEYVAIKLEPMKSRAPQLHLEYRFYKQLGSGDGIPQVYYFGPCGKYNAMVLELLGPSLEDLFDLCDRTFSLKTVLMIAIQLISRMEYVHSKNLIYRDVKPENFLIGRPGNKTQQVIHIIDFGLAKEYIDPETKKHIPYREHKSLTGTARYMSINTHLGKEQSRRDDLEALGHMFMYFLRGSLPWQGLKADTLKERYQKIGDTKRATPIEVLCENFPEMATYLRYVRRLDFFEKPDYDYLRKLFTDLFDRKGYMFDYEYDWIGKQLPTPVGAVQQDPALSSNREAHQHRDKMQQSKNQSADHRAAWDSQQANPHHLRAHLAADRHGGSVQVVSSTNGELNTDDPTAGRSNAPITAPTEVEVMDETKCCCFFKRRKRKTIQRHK
Serine/threonine-protein kinase TAO2 (Homo sapiens), sequence (Q9UL54 whole entry, the tested form may be a part): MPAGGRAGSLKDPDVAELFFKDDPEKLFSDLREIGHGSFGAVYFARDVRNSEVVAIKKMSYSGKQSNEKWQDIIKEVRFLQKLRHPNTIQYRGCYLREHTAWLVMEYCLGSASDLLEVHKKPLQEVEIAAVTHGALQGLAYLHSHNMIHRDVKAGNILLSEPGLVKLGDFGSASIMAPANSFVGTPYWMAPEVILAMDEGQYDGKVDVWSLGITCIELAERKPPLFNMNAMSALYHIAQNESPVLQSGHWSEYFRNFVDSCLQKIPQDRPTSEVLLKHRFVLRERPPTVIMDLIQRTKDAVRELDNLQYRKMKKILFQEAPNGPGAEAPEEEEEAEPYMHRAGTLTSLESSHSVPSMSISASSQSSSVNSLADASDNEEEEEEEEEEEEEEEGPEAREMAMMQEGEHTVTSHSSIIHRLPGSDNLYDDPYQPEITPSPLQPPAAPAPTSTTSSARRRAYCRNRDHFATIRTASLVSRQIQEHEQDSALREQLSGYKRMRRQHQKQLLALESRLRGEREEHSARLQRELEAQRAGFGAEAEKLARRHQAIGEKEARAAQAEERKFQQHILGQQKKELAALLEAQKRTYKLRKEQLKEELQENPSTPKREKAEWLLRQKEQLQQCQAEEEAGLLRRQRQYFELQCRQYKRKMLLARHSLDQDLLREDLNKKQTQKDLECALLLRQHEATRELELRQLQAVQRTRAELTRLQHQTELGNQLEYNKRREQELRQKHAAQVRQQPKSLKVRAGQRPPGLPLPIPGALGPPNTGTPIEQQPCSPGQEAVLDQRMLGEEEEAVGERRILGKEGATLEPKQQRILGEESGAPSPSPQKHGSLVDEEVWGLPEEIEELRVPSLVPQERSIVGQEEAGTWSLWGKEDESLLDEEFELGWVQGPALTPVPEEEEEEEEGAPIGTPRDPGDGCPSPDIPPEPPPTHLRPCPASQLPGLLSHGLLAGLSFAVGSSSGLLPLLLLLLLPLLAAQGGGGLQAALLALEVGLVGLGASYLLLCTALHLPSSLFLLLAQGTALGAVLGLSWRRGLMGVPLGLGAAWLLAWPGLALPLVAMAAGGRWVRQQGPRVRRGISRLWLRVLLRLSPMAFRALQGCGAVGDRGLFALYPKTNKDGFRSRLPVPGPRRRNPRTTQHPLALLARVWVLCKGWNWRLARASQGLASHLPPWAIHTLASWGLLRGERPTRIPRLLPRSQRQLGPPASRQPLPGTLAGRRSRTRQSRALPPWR
Serine/threonine-protein kinase Nek7 (Homo sapiens), sequence (Q8TDX7 whole entry, looked up): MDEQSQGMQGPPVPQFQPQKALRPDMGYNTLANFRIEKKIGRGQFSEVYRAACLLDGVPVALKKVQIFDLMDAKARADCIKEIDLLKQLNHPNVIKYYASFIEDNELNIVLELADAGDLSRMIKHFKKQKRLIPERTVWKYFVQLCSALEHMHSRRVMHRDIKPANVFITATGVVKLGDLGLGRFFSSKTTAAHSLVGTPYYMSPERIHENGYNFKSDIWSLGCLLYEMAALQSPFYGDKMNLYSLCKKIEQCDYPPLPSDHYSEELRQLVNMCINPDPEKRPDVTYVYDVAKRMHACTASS
Epithelial discoidin domain-containing receptor 1 (Homo sapiens), sequence (Q08345 whole entry, the tested form may be a part): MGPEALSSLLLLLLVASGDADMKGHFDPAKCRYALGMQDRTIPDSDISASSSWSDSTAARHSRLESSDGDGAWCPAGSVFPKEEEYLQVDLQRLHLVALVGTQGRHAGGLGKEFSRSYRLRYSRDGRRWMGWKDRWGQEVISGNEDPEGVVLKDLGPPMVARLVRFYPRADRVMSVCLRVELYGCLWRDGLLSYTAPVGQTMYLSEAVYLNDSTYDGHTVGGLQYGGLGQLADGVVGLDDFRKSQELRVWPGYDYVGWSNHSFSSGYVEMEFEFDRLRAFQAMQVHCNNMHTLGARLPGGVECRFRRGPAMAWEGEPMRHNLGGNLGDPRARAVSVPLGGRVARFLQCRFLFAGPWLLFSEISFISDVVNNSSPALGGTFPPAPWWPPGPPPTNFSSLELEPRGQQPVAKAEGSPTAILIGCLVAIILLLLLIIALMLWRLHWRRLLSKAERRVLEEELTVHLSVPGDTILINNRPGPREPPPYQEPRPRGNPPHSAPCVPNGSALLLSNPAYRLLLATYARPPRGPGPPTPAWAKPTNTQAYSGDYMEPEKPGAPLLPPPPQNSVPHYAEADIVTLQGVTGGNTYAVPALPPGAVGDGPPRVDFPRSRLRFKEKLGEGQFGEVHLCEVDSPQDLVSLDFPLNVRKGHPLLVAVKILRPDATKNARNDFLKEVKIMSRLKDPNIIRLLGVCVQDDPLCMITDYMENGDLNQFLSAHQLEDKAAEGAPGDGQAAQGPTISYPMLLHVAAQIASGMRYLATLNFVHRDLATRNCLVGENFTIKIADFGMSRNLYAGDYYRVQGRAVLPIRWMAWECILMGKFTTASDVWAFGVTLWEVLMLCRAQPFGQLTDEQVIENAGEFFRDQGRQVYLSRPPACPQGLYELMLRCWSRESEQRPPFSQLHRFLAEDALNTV

Cc1cc2c(-c3ccc(NC(=O)[C@H](N)CC(C)(C)C)cc3C)ccnc2[nH]1
activity [1]: 84% | activity [2]: 85% | activity [3]: 97% | activity [4]: 104% | activity [5]: 112% | activity [6]: 90% | activity [7]: 88% | activity [8]: 95% | activity [9]: 115% | activity [10]: 92% | activity [11]: 96% | activity [12]: 101% | activity [13]: 118% | activity [14]: 95% | Kd [15]: 300 pM (active) | activity [16]: 94% | activity [17]: 90% | activity [18]: 96% | activity [19]: 90% | activity [20]: 98% | activity [21]: 88% | activity [22]: 80% | activity [23]: 91% | activity [24]: 88% | activity [25]: 97% | activity [26]: 93% | activity [27]: 82% | activity [28]: 94% | activity [29]: 83% | activity [30]: 110% | activity [31]: 97% | activity [32]: 85% | activity [33]: 87% | activity [34]: 112% | activity [35]: 109% | activity [36]: 94% | activity [37]: 109% | activity [38]: 85% | activity [39]: 95%
